What was measured:
Type in all cases: cell-based
[1] = tested on: PANC-1 cells; experiment: PANC-1 cytotoxicity (Cell Tox green assay); conditions: 5 and 20 μM, 24 hours
Experimental: Analysis of Cell Proliferation. For PANC-1 cell proliferation and cell cytotoxicity measurements, […] were seeded in 96 well-plates in 100 μL of DMEM medium. Cells were incubated for 24 hours at 37° C. with 3 different SOCE inhibitors (GSK-7975-A, SKF-93365 and 6αa) at 2 different concentrations (5 and 20 μM) compared to DMSO and untreated cells. Cell proliferation was evaluated using the Cell Titer kit proliferation assay (Promega). Cytotoxicity was evaluated using the Cell Tox green cytotoxicity assay (Promega). All the kits were used following manufacturer recommendations and using a plate reader.

[2] = tested on: JOK cells; experiment: JOK cell proliferation assay
Experimental: Cell Proliferation Assays. Cultured JOK cells were seeded in 96-well culture plates with or without inhibitors. After 48 hours, cell proliferation was assessed using WST-8 assay (Sigma Aldrich). The absorbance was read at 450 nm on a plate reader.

[3] = tested on: JOK cells; experiment: JOK cell cycle analysis (PI staining, flow cytometry)
Experimental: Cell Cycle Analysis. JOK cells were incubated with or without test compounds (GSK-7975-A, SKF-93365 and 6αa) for 48 hours and then washed with cold PBS and fixed with 70% ethanol for 30 minutes at room temperature. Cell cycle was analyzed using propidium iodide (PI). Cell-cycle distribution was determined by PI-staining using flow cytometry and analyzed by Kaluza 1.3.

COc1ccc(CCOc2ccc(CCn3cnc4ccccc43)cc2)cc1 [6αa DAD 3-473, 1-[4-(4-Methoxyphenethoxy)phenethyl]-1H-benzo[d]imidazole]
cytotoxicity in cancer PANC-1 cells [1]: induces cytotoxicity | JOK proliferation [2]: significantly reduces | cell cycle [3]: affects cell cycle
